Measured values taken from ChEMBL document CHEMBL1201862, “PubChem BioAssay data set” (2004).
Active and inactive are the calls of the source.

Key:
[1] = biological target: T1, ATP-dependent translocase ABCB1 (Homo sapiens, UniProt P08183); assay: P-gp JC-1 efflux blockade concentration-response – Jurkat-DNR cells, flow cytometry, set 2, dose response (AID 504569); type: functional; conditions: read-out: EC50_MICROM_;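 note: potency of pump inhibitors that raise cellular JC-1 green fluorescence up to the nicardipine level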
T1 sequence (P08183 whole entry): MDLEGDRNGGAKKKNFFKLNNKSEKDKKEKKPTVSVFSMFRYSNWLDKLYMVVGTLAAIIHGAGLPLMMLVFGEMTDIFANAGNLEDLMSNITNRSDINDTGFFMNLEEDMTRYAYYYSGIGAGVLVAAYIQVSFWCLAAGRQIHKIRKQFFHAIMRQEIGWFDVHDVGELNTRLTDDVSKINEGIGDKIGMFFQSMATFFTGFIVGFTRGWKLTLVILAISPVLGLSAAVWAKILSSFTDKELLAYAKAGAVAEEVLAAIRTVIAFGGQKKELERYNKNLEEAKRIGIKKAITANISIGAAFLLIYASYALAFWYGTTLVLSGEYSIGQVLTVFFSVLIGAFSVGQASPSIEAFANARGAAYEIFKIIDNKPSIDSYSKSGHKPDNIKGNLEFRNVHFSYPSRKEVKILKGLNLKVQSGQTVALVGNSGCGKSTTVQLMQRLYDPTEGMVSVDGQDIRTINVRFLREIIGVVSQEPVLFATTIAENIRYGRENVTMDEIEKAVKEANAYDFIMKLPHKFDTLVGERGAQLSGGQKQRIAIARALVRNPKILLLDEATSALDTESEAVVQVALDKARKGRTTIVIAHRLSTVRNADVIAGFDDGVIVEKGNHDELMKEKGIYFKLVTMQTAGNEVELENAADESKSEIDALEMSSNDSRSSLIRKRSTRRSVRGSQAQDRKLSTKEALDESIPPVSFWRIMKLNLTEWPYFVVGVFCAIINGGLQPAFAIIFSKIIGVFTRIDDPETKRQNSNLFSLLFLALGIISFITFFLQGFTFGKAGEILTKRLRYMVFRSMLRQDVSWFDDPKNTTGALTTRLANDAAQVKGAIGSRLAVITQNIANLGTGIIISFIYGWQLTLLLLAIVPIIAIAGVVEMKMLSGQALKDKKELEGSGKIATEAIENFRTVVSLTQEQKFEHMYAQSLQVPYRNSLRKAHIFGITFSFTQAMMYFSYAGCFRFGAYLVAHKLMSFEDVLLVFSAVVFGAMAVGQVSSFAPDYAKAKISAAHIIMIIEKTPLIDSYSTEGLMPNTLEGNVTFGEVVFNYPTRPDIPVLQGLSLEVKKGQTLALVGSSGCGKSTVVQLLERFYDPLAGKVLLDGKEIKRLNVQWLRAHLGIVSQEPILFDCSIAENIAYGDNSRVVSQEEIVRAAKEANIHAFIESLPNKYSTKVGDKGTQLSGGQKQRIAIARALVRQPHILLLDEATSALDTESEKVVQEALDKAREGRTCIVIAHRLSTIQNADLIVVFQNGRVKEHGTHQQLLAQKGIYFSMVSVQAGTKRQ

[2] = biological target: T1, ATP-dependent translocase ABCB1; assay: inhibition of BCRP-mediated JC-1 efflux – Ig-MXP3 cells, flow cytometry, set 2, dose response (AID 504566); type: functional; conditions: read-out: EC50_MICROM_;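 note: flow cytometry median green fluorescence of retained JC-1 dye; potency of efflux pump inhibition measured as rising substrate retention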
[3] = L6 myocyte viability loss – cell-based, plate reader, cherry-pick, cytotoxicity control, dose response (AID 651896); type: functional
[4] = Inhibition of T. cruzi Tulahuen strain amastigotes in L-6 muscle cells Measured in Cell-Based and Microorganism Combination System Using Plate Reader - 2138-03_Inhibitor_Dose_CherryPick_Activity.; type: functional; conditions: Rattus norvegicus, L6
[5] = intracellular Trypanosoma cruzi inhibitors in host cells – cell-based, plate reader, cherry-pick samples, set 3, dose response (AID 651818); type: functional;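 note: compounds incubated with infected cells for about four days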
[6] = African trypanosome bloodstream form growth inhibition – STIB900 strain, plate reader, cherry pick, dose response (AID 651893); type: functional, cell-based, Trypanosoma brucei rhodesiense; conditions: Trypanosoma brucei
[7] = antileishmanial activity on axenic amastigotes – plate reader, cherry pick, dose response (AID 651891); type: functional, cell-based; conditions: Leishmania donovani
[8] = Inhibition of Plasmodium falciparum NF54 Measured in Cell-Based System Using Plate Reader - 2138-11_Inhibitor_Dose_CherryPick_Activity.; type: functional
HEK293 = assay: cells; type: functional, cell-based; conditions: Homo sapiens
[9] = biological target: Dual specificity protein phosphatase 3 (Homo sapiens, UniProt P51452); assay: VHR phosphatase inhibition, dose response, selectivity assay for STEP inhibitor project, biochemical (AID 602374); type: functional; conditions: read-out: IC50_Mean
[10] = biological target: Tyrosine-protein phosphatase non-receptor type 22 (Homo sapiens, UniProt Q9Y2R2); assay: lymphoid phosphatase LYP inhibitors – biochemical, selectivity assay for STEP inhibitor project, dose response (AID 624241); type: functional
[11] = biological target: T2, Tyrosine-protein phosphatase non-receptor type 5 (Homo sapiens, UniProt P54829); assay: PTPN5 enzyme inhibition – biochemical, fluorescence intensity, uHTS hits, confirmation (AID 602372); type: functional; conditions: read-out: IC50_Mean
T2 sequence (P54829 whole entry): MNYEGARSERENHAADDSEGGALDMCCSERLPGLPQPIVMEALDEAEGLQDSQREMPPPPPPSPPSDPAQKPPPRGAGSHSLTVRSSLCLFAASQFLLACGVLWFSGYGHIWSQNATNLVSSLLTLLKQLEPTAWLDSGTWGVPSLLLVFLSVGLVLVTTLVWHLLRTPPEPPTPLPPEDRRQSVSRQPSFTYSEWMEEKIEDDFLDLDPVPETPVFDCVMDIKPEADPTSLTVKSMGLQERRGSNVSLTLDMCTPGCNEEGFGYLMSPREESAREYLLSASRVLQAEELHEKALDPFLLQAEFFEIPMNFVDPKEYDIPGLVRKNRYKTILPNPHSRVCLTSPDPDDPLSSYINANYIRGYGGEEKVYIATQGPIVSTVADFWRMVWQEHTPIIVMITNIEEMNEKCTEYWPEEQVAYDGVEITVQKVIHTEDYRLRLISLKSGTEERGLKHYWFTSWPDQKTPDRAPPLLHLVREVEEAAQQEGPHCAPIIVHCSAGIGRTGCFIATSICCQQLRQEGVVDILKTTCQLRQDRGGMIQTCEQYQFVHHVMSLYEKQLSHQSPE

[12] = biological target: T3, Tyrosine-protein phosphatase non-receptor type 11 (Homo sapiens, UniProt Q06124); assay: PTPN11 enzyme inhibitors – biochemical, selectivity assay for STEP inhibitor project, dose response (AID 602367); type: functional; conditions: read-out: IC50_Mean
T3 sequence (Q06124 whole entry): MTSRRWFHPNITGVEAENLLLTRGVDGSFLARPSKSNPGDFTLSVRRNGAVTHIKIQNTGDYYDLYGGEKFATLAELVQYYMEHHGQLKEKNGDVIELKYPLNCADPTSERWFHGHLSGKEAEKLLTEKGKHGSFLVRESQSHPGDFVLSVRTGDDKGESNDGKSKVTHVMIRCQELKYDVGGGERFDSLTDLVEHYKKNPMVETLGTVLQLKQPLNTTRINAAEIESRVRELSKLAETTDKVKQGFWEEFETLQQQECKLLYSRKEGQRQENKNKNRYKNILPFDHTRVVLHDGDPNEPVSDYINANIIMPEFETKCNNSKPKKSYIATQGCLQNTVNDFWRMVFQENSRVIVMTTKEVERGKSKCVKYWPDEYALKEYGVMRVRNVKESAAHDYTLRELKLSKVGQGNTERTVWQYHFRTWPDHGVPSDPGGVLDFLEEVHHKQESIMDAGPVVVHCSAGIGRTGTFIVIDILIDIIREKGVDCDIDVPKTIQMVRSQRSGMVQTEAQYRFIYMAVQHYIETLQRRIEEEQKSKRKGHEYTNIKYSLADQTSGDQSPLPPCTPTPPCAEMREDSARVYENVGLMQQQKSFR

[13] = biological target: Glucose-6-phosphate 1-dehydrogenase (Homo sapiens, UniProt P11413); assay: inhibition of Homo sapiens G6PD, dose series – biochemical, fluorescence, selectivity assay for P. falciparum G6PD inhibitor project, dose response (AID 504792); type: functional
Sequence of Glucose-6-phosphate 1-dehydrogenase (P11413 whole entry): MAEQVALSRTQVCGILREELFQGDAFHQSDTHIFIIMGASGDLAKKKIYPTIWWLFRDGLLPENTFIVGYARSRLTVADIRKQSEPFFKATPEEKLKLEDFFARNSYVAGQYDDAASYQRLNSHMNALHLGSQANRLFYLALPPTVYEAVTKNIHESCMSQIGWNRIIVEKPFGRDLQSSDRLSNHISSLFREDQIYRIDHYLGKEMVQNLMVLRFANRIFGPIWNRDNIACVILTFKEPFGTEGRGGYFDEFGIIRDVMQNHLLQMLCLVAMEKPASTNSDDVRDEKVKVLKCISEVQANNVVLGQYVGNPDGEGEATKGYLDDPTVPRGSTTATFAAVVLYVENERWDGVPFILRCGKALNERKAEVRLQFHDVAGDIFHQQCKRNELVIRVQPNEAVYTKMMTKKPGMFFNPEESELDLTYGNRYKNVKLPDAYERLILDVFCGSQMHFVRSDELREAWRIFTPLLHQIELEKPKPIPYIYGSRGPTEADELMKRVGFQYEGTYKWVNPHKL

[14] = biological target: T4, Nuclear receptor subfamily 0 group B member 1 (Homo sapiens, UniProt P51843); assay: Luminescence-based cell-based high throughput dose response assay for inhibitors of the orphan nuclear receptor subfamily 0, group B, member 1 (DAX1; NR0B1). [Related pubchem assays (depositor defined):AID504766, AID504790]; type: functional
T4 sequence (P51843 whole entry): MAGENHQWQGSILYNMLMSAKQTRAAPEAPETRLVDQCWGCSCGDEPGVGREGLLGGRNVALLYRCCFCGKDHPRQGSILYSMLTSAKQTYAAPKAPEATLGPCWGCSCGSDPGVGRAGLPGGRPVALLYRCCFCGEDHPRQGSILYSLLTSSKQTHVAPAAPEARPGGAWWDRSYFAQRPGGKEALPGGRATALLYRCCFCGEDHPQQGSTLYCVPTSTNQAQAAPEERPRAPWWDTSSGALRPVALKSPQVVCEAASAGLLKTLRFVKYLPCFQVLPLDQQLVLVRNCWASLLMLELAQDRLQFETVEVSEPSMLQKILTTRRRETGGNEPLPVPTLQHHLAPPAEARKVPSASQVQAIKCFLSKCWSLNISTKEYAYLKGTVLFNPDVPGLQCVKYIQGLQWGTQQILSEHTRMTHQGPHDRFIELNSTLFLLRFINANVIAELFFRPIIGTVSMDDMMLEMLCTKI

Mu-type opioid receptor = Mu-type opioid receptor (Homo sapiens, UniProt P35372); type: functional, cell-based;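 note: U2OS cells with beta-arrestin recruitment to OPRM1 by beta-gal complementation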
Sequence of Mu-type opioid receptor (P35372 whole entry): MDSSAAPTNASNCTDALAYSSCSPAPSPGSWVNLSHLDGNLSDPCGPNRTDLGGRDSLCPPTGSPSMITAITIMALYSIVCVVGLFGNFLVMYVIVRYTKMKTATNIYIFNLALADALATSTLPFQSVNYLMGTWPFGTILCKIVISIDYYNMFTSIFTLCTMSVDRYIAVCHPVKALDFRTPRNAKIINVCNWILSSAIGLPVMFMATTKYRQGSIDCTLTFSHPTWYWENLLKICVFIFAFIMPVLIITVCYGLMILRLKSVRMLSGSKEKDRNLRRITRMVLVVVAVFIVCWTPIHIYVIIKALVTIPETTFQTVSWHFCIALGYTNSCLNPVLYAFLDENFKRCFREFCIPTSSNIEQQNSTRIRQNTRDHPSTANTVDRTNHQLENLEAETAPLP

[15] = biological target: 5-hydroxytryptamine receptor 2A (Mus musculus, UniProt P35363); type: functional, cell-based;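 note: CHO-K1 cells with tagged receptor and beta-arrestin; agonist potency measured as compound-induced activation of the receptor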
[16] = biological target: T5, Protein disulfide-isomerase (Homo sapiens, UniProt P07237); assay: inhibition of PDI-driven insulin aggregation – biochemical, turbidity, absorbance, cherry-picked samples, dose response (AID 602350); type: functional
T5 sequence (P07237 whole entry): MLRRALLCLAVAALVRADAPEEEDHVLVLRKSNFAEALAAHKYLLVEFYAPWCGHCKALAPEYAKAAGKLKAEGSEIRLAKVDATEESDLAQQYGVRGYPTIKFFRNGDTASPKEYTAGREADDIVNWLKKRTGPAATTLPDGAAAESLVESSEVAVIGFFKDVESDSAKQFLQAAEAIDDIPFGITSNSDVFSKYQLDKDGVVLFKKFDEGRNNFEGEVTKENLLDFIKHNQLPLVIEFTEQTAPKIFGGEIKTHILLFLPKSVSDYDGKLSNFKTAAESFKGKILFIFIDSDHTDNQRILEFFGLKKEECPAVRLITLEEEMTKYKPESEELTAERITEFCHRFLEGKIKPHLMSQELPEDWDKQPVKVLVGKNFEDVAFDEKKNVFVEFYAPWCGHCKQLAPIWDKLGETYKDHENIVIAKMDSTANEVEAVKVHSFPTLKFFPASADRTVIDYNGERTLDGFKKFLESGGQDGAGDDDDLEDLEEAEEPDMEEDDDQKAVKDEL

[17] = biological target: T5, Protein disulfide-isomerase; assay: inhibition of PDI-mediated insulin reduction – biochemical, turbidity, absorbance, cherry-picked samples, set 2, dose response (AID 624274); type: functional
[18] = biological target: Broad substrate specificity ATP-binding cassette transporter ABCG2 (Homo sapiens, UniProt Q9UNQ0); assay: blockers of JC-1 export by ABCG2 – Ig-MXP3 cells, flow cytometry, dose response (AID 1690); type: functional
Sequence of Broad substrate specificity ATP-binding cassette transporter ABCG2 (Q9UNQ0 whole entry): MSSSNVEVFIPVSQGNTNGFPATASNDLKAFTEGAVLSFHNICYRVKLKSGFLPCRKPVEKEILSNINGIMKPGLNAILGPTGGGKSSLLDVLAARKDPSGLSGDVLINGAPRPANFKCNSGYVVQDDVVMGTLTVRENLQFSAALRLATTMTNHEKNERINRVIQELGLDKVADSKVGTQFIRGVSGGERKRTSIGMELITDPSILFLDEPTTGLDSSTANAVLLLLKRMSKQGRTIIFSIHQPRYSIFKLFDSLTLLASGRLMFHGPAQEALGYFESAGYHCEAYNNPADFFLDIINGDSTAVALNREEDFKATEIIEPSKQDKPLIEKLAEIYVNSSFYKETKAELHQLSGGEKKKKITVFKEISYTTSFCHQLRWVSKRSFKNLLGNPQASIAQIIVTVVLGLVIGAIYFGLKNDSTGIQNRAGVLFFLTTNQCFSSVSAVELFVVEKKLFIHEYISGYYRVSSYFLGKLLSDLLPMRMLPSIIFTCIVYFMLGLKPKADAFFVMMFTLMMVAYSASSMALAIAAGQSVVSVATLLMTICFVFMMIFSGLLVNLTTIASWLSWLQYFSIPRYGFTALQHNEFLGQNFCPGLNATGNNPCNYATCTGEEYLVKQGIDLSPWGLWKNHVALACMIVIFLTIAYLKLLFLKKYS

[19] = biological target: T6, Sentrin-specific protease 8 (Homo sapiens, UniProt Q96LD8); type: functional
T6 sequence (Q96LD8 whole entry): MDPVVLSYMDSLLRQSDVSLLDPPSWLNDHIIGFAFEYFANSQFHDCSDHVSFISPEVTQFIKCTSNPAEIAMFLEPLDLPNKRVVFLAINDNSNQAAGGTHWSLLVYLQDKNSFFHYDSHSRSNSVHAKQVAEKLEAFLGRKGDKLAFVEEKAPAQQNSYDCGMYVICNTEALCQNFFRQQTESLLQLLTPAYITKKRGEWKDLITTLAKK

Caspase-3 = biological target: T7, Caspase-3 (Homo sapiens, UniProt P42574); assay: Dose-response confirmation of uHTS inhibitor hits of Sentrin-Specific Protease 8 in a Caspase-3 Fluorescence assay.; type: functional
T7 sequence (P42574 whole entry): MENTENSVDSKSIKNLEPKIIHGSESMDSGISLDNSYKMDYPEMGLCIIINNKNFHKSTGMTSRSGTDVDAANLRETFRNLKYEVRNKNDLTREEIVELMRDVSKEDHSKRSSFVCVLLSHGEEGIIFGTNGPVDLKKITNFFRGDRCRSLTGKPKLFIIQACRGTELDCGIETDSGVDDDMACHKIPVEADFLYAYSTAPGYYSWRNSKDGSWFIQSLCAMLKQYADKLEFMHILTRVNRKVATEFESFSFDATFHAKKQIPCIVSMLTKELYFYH

[20] = biological target: T6, Sentrin-specific protease 8; type: functional; remark: listed apart in the source
[21] = biological target: 72 kDa type IV collagenase (Homo sapiens, UniProt P08253); assay: Dose Response validation of uHTS RPN11 inhibitor hits using a MMP-2 Fluorescence assay.; type: functional
Sequence of 72 kDa type IV collagenase (P08253 whole entry): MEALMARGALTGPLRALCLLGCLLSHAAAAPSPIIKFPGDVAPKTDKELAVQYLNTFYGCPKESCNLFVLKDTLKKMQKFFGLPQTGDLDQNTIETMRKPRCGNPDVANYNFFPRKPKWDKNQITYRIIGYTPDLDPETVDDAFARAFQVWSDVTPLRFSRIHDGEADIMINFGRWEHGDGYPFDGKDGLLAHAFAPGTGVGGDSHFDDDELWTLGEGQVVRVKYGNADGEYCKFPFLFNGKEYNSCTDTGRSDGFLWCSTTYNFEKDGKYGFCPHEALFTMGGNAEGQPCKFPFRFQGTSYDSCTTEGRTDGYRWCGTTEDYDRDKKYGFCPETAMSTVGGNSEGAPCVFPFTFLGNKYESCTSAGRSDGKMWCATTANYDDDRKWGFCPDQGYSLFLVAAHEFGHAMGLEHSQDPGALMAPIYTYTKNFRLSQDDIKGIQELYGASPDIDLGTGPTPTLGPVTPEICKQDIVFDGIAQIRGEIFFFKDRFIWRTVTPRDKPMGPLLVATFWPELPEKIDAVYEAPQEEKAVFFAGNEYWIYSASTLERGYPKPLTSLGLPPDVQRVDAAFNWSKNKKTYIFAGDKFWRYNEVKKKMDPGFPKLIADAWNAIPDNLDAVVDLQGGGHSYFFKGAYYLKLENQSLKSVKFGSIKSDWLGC

[22] = biological target: 26S proteasome non-ATPase regulatory subunit 14 (Homo sapiens, UniProt O00487); assay: inhibition of proteasome subunit RPN11 – biochemical, fluorescence polarization, uHTS hits, confirmation (AID 602368); type: functional
Sequence of 26S proteasome non-ATPase regulatory subunit 14 (O00487 whole entry): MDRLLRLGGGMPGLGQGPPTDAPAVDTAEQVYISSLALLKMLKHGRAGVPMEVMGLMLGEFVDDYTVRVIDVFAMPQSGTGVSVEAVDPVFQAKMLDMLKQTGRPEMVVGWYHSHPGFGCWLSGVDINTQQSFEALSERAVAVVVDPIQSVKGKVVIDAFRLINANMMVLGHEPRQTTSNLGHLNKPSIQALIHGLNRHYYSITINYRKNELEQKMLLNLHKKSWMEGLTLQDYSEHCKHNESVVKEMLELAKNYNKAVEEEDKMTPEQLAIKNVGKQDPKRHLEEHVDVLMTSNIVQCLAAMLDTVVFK

Prothrombin = Prothrombin (Bos taurus, UniProt P00735); assay: thrombin protease inhibitors – biochemical, fluorescence polarization, uHTS hits, dose response (AID 602369); type: functional
[23] = biological target: T8, Low molecular weight phosphotyrosine protein phosphatase (Homo sapiens, UniProt P24666); type: functional; conditions: read-out: IC50_Mean
T8 sequence (P24666 whole entry): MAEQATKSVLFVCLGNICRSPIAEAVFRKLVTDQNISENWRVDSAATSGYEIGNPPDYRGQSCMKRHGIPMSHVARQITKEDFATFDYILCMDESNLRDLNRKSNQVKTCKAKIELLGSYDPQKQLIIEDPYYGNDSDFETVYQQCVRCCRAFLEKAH

[24] = biological target: T8, Low molecular weight phosphotyrosine protein phosphatase; type: functional; conditions: read-out: IC50_Mean; remark: listed apart in the source
[25] = microbe, parasite or virus in culture; type: functional; conditions: Mycobacterium tuberculosis
[26] = biological target: Hepatocyte nuclear factor 4-alpha (Homo sapiens, UniProt P41235); type: functional, cell-based;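 note: biochemical luminescence-based dose-response counterscreen measuring inhibition of HNF4 dimerization, run alongside a screen for blockers of ABHD5–perilipin-5 interaction; split luciferase complementation of HNF4 fusion proteins in cell lysate measuring dimerization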
Sequence of Hepatocyte nuclear factor 4-alpha (P41235 whole entry, the tested form may be a part): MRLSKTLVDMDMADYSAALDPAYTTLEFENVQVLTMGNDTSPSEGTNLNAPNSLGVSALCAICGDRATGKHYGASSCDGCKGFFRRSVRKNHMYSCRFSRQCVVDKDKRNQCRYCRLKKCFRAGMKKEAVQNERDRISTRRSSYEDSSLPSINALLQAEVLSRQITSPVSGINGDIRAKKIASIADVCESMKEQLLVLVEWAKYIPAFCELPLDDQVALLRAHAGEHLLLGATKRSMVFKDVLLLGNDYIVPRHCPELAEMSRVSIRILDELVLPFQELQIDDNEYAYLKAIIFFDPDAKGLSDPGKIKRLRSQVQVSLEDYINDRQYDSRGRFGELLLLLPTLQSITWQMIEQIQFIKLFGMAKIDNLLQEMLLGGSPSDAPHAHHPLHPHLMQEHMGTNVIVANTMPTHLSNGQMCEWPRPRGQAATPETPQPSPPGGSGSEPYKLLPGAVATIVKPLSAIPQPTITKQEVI

[27] = biological target: T9, Ubiquitin-conjugating enzyme E2 N (Homo sapiens, UniProt P61088); type: functional;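 note: Dose-response confirmation in a TR-FRET assay detecting UBC13-driven polyubiquitin chain formation, inhibition measured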
T9 sequence (P61088 whole entry): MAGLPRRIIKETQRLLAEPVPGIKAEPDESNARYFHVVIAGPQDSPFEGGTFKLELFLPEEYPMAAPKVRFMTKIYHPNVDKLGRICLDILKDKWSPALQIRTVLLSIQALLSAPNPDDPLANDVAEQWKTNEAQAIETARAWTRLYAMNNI

[28] = biological target: T10, DNA repair protein RAD52 homolog (Homo sapiens, UniProt P43351); type: functional, biochemical
T10 sequence (P43351 whole entry): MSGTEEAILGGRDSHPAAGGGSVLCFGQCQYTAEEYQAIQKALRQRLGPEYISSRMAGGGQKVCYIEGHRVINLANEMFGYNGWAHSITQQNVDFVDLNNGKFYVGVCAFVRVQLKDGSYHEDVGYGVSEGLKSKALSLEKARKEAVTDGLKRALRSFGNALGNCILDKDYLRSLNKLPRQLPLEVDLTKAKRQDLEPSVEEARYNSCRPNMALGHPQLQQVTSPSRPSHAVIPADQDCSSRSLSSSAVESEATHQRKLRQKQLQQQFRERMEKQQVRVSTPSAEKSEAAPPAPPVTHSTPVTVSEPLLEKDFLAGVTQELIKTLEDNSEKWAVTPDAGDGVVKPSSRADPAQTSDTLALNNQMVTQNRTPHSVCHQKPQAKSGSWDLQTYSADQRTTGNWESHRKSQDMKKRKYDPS

[29] = biological target: FAD-linked sulfhydryl oxidase ALR (Homo sapiens, UniProt P55789); assay: ALR-catalysed DTT oxidation blockers – biochemical, H2O2 detection, luminescence, cherry-pick, dose response (AID 493248)
Sequence of FAD-linked sulfhydryl oxidase ALR (P55789 whole entry): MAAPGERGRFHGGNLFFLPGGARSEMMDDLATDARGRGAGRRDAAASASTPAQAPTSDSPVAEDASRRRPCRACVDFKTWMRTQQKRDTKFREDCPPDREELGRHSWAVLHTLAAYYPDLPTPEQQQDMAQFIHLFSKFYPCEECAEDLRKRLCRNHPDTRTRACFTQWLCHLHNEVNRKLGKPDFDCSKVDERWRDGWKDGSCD

For O=C(c1ccoc1)N1CCN(c2cc(-c3ccccc3)nc3cc(-c4cccc(Cl)c4)nn23)CC1, the EC50 [1] was 9.03 µM (active) and the EC50 [2] was 1 µM (active).
With C[C@H]1CN([C@@H](C)CO)C(=O)c2cccc(NC(=O)c3ccncc3)c2O[C@H]1CN(C)Cc1ccccc1 the IC50 [3] was > 100 µM (inactive), the IC50 [4] was 19.2 µM (inactive) and the AC50 [5] was 0.267 µM (active). The IC50 [6] was 51.5 µM (inactive), the IC50 [7] was > 100 µM (inactive) and the IC50 [8] was 19.2 µM (inactive).
For CCN1CCN(C(=S)c2ccc(O)cc2)CC1, the IC50 (HEK293) was > 67.6 µM (inactive), the IC50 [9] was 0.74 µM (active) and the IC50 [10] was 45.1 µM (inactive). The IC50 [11] was 20.1 µM (inactive), the IC50 [12] was 0.712 µM (active) and the IC50 [13] was > 80 µM (inactive). The IC50 [14] was > 67.6 µM (inactive).
In the case of COc1cccc(CN2CCN(C(=O)c3ccco3)CC2)c1, the EC50 (Mu-type opioid receptor) is reported as 92.5 µM (inactive) and the EC50 [15] is reported as 1.16 µM (active).
For C[C@H]1CN([C@@H](C)CO)C(=O)c2cccc(NS(C)(=O)=O)c2O[C@H]1CN(C)Cc1ccc(Oc2ccccc2)cc1, the AC50 [16] was < 0.003 µM (active) and the AC50 [17] was 0.003 µM (active).
For Cc1cc(C)c(C#N)c(SCc2c(F)cccc2[N+](=O)[O-])n1, the EC50 [18] was 3.82 µM (active).
In the case of COc1ccc(OC)c(S(=O)(=O)N(C)CC(=O)N2CCc3ccccc3C2)c1, the IC50 [19] is reported as 8.07 µM (active), the IC50 (Caspase-3) is reported as 30.8 µM (active) and the IC50 [20] is reported as 9.57 µM (active).
For COc1ccc(NC(=O)CCn2c(=S)[nH]c3ccccc3c2=O)cc1Cl, the IC50 [21] was 4.32 µM (active), the IC50 [22] was 26.3 µM (active) and the IC50 (Prothrombin) was > 100 µM (inactive). The IC50 [23] was 68.3 µM (inactive) and the IC50 [24] was 12 µM (active).
With CCSc1ccc2c(c1)N(CCCN1CCN(C)CC1)c1ccccc1S2 the CC50 [25] was 16.3 µM (active), the IC50 [26] was 29.9 µM (inactive) and the IC50 [27] was > 20 µM (inactive). For the same compound, the AC50 [28] was 14.9 µM (active) and the AC50 [29] was 1.09 µM (active).
